This is an account of results in patent US20120035214A1, “RENIN INHIBITORS” (Merck Canada Inc., priority 2009, published 2012).

One assay has as its target T1, Human recombinant renin (Homo sapiens, UniProt P00797).
T1 construct: purchased Proteos
T1 sequence (P00797 67-406): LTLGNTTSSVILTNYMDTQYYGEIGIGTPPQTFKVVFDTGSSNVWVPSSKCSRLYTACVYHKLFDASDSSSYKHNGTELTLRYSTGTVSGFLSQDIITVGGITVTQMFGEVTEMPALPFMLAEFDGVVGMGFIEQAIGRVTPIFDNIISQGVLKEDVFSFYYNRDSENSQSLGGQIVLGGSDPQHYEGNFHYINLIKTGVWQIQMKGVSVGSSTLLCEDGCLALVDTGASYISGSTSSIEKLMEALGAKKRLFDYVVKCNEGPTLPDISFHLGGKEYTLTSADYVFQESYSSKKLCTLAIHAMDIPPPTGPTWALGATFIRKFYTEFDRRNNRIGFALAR
The assay can be described thus: Inhibition of human recombinant renin (QFRET, buffer). Type of assay: biochemical. To be noted: buffer: 50 mM MOPS pH 7.4, 100 mM NaCl, 0.002% Tween 20; 37° C., 3 hours. The method, boiled down:
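Renin at […] final in 50 mM MOPS pH 7.4, 100 mM NaCl, 0.002% Tween 20, with compounds diluted 50-fold from DMSO and 6 μM internally quenched DNP peptide substrate. Incubation 3 h at 37 °C; fluorescence (ex 328/em 388 nm) at 3 h minus t=0 background; IC50 derived.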

Assay [1] addresses T2, recombinant renin in human plasma (Homo sapiens, UniProt P00797).
T2 construct: purchased Proteos
T2 sequence (P00797 67-406): T1 sequence (P00797 67-406)
The assay is described as follows: Inhibition of renin in human plasma (QFRET, plasma). Type of assay: biochemical. The settings on record: human EDTA plasma with 1 nM recombinant renin added; 37° C., 1 hour. The method, boiled down:
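Cleared human EDTA plasma spiked with 1 nM recombinant renin. Compounds preincubated with the plasma for 10 min at 37 °C, then 6 µM internally quenched FAM peptide added (final 342 mM Tris pH 7.2, 23 mM EDTA) and incubated for 1 h at 37 °C. Fluorescence (490/520 nm) at 1 h minus t=0 gave IC50.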

Broadly, the IC50 is the concentration that gives 50% inhibition. Regarding `COCC(F)(F)COCc1ccc([C@@]2(O)CCNC[C@@H]2c2ccc(-c3ccccc3CCNC(C)=O)cc2C)nc1` [Structure 123], the concentration for half-maximal inhibition (IC50) on Human recombinant renin is 1.2 nM; in assay [1] it was 5.6 nM.
For `COC[C@H](C)COCc1ccc([C@@]2(O)CCNC[C@@H]2c2ccc(-c3ccccc3CCNC(N)=O)cc2C)cc1` [Structure 124] the same measures were 0.63 nM and 3.6 nM.
The matching figures for `COC[C@H](C)COCc1ccc([C@@]2(O)CCNC[C@@H]2c2ccc(-c3ccccc3CCN3CCOC3=O)cc2C)cc1` [Structure 125]: 4.6 nM and 76 nM.
In the case of `COC[C@H](C)COCc1ccc([C@@]2(O)CCNC[C@@H]2c2ccc(-c3ccccc3CCNC(C)=O)cc2Cl)cc1` [Structure 126], the IC50 on Human recombinant renin came to 0.08 nM; in assay [1] it was 0.52 nM.
In the case of `COC[C@H](C)COCc1ccc([C@@]2(O)CCNC[C@@H]2c2ccc(-c3ccccc3CCNC(=O)OC)cc2C)cc1` [Structure 127], the IC50 at Human recombinant renin was 0.03 nM; in assay [1], 1.3 nM.
For `COC[C@H](C)COCc1ccc([C@@]2(O)CCNC[C@@H]2c2ccc(-c3ccccc3CCNC(=O)CO)cc2C)cc1` [Structure 128] the same measures were 0.07 nM and 0.57 nM.
`COC[C@H](C)COCc1ccc([C@@]2(O)CCNC[C@@H]2c2ccc(-c3ccccc3CCNC(C)=O)cc2C)cc1` [Structure 129]: the figures for the IC50 (at Human recombinant renin; in assay [1]) were 0.05 nM and 0.44 nM, respectively.
Regarding `COC[C@H](C)COCc1ccc([C@@]2(O)CCNC[C@@H]2c2ccc(-c3ccccc3CCNC(C)=O)cc2C)nc1` [Structure 130], the IC50 at Human recombinant renin is 0.075 nM; in assay [1], 3.8 nM.
For `COC[C@H](C)COc1ccc([C@@]2(O)CCNC[C@@H]2c2ccc(-c3ccccc3CCNC(C)=O)cc2C)cc1` [Structure 131] the same measures were 1.2 nM and 18 nM.
Regarding `CC(=O)NCCc1ccccc1-c1ccc([C@H]2CNCC[C@]2(O)c2ccc(OC(F)(F)F)c(F)c2)c(C)c1` [Structure 132], the IC50 on Human recombinant renin stood at 0.4 nM; in assay [1], 18 nM.
